Where two headings read alike, the source gives them in different places.
Experiments:
Human α3β2α5 = molecular target: T1, Human α3β2α5 (Homo sapiens, UniProt P17787+P30532+P32297); assay: Voltage clamp of Xenopus oocytes expressing human α3β2α5 nAChR; format: cell-based
T1 construct: expressed in transfected cells; host or cells: Xenopus laevis oocytes injected with subunit cRNAs
Experimental: (§1) Mature (>9 cm) female Xenopus laevis African frogs (NASCO, Ft. Atkinson, Wis.) were used as a source of oocytes. Prior to surgery, frogs were anesthetized by placing the animal in a 1.5 g/l solution of MS222 (3-aminobenzoic acid ethyl ester) for 30 minutes. Oocytes were removed from an incision made in the abdomen.
(§2) In order to remove the follicular cell layer, harvested oocytes were treated with 1.25 mg/ml collagenase from Worthington Biochemical Corporation (Freehold, N.J.) for 2 hours at room temperature in calcium-free Barth's solution (88 mM NaCl, 10 mM HEPES pH 7.6, 0.33 mM MgSO4, 0.1 mg/ml gentamicin sulfate). Subsequently, stage 5 oocytes were isolated and injected with 50 nl (5-20 ng) each of the appropriate subunit cRNAs. Recordings were made 2 to 15 days after injection.
After linearization and purification of cloned cDNAs, RNA transcripts were prepared in vitro using the appropriate mMessage mMachine kit from Ambion Inc. (Austin, Tex.).
Electrophysiology. The majority of experiments were conducted using OpusXpress 6000A (Axon Instruments, Union City Calif.). OpusXpress is an integrated system that provides automated impalement and voltage clamp of up to eight oocytes in parallel. Cells were automatically perfused with bath solution, and agonist solutions were delivered from a 96-well plate. Both the voltage and current electrodes were filled with 3 M KCl. The agonist solutions were applied via disposable tips, which eliminated any possibility of cross-contamination. Drug applications alternated between ACh controls and experimental applications. Flow rates were set at 2 ml/min for experiments with α7 receptors and 4 ml/min for other subtypes. Cells were voltage-clamped at a holding potential of −60 mV. Data were collected at 50 Hz and filtered at 20 Hz. Agonist applications were 12 seconds in duration followed by 181-second washout periods for α7 receptors and 8 seconds with 241-second wash periods for other subtypes. For some experiments, particularly under conditions where residual inhibition precluded making repeated measurements from single cells (see below), manual oocyte recordings were made as previously described (Papke and Papke Br J of Pharmacol, 2002, 137:49-61). […]
Experimental protocols and data analysis. […] In other experiments (Papke et al. J. Neurochem., 2000, 75:204-216; Papke and Papke Br J of Pharmacol, 2002, 137:49-61) these concentrations were determined to be the EC74, EC15, EC22, EC17, EC40, EC70, EC55, EC70 and EC100, respectively. […]
Responses to experimental drug applications were calculated relative to the preceding ACh control responses in order to normalize the data, compensating for the varying levels of channel expression among the oocytes. […]

Rat α3β4β3 = Rat α3β4β3 (Rattus norvegicus, UniProt P04757+P12391+P12392); assay: Voltage clamp of Xenopus oocytes expressing α3β4β3 nAChR; format: cell-based; parameters: Rat neuronal nAChR clones and mouse muscle nAChR cDNA clones were used; The wild-type clones were obtained from Dr. Jim Boulter (UCLA)
Chain of Rat α3β4β3 (P04757 26-499): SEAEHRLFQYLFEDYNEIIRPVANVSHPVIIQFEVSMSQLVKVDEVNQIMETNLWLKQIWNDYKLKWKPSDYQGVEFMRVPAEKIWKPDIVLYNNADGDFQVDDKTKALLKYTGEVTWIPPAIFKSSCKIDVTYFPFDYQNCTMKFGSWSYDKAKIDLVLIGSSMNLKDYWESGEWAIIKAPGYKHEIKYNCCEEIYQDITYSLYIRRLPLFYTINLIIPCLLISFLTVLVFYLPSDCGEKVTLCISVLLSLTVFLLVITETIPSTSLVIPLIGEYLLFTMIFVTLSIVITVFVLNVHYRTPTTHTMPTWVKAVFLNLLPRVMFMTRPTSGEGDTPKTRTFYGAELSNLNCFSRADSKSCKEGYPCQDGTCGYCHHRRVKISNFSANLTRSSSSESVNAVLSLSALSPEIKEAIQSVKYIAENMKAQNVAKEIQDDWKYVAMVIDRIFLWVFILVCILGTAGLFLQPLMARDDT
Chain of Rat α3β4β3 (P12392 21-495): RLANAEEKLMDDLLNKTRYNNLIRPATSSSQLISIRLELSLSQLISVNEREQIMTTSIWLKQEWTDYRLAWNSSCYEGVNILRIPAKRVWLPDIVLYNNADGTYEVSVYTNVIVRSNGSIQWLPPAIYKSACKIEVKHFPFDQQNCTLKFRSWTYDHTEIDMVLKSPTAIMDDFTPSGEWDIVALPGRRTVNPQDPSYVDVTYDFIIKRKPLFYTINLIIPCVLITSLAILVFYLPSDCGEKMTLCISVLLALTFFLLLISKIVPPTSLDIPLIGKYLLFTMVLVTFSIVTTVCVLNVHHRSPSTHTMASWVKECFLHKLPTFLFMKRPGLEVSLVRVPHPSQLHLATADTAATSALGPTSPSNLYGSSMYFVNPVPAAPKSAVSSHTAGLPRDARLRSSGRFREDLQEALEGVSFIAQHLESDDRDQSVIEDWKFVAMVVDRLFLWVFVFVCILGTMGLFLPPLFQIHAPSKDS
Chain of Rat α3β4β3 (P12391 31-464): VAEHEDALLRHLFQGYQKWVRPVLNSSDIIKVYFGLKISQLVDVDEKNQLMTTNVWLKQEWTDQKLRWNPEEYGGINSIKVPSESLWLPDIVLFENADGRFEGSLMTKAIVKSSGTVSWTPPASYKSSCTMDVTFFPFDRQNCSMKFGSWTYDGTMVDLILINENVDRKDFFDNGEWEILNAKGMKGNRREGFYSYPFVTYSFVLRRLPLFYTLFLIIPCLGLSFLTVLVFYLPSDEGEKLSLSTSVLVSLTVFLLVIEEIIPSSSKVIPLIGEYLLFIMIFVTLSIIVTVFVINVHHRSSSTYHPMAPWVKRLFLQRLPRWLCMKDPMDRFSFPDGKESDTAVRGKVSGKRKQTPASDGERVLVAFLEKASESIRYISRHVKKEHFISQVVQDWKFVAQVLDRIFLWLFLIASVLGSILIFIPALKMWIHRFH
Experimental: as §1, §2
Rat neuronal nAChR clones and mouse muscle nAChR cDNA clones were used. The wild-type clones were obtained from Dr. Jim Boulter (UCLA). The rat α6/3 (Dowell et al. J Neurosci, 2003, 23:8445-8452) clone was obtained from Michael McIntosh (University of Utah) and expressed in Xenopus oocytes in combinations with rat β2 and β3. […] The TM2 domain is understood to line the pore of the channel, with alpha helix structure. […] The corrected clone was expressed as above in Xenopus oocytes with β2 and β3 and compared to the wild-type α3 co-expressed with β2 and β3. […]

T1 sequence (P32297 32-505): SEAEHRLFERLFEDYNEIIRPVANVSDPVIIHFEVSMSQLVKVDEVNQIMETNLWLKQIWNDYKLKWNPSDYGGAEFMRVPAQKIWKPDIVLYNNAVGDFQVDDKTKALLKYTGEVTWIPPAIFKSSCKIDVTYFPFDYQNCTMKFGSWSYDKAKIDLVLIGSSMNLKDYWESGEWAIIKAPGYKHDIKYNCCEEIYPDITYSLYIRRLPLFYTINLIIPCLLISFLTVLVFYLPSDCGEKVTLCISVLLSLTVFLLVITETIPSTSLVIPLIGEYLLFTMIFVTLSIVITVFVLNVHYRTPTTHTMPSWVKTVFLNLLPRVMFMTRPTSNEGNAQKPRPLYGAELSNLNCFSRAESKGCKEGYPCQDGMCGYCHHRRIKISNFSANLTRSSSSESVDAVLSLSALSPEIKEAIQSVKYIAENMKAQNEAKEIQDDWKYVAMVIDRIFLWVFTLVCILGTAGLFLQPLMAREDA
T1 sequence (P17787 26-502): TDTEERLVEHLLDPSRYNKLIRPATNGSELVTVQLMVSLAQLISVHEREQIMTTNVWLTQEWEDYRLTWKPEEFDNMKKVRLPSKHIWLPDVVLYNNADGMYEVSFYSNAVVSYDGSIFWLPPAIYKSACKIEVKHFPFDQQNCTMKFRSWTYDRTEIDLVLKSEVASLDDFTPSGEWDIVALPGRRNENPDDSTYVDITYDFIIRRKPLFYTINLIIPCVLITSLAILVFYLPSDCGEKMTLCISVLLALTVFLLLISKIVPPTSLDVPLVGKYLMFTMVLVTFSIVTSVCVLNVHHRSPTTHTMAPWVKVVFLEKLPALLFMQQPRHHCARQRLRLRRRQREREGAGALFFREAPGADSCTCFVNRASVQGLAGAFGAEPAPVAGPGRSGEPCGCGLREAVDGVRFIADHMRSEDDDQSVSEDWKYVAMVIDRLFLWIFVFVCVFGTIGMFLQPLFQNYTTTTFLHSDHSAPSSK
T1 sequence (P30532 23-468): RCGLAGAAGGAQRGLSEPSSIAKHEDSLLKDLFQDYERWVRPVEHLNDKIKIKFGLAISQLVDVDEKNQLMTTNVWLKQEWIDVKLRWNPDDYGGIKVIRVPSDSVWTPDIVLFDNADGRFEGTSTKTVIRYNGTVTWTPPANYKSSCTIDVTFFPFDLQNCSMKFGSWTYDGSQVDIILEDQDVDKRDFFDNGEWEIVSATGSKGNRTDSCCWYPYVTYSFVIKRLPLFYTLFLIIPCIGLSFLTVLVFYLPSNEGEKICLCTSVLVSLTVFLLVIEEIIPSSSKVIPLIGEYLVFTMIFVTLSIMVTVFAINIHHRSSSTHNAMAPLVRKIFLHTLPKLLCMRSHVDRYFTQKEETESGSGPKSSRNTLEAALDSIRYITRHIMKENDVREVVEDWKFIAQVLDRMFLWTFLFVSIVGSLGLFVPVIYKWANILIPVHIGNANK

CCCCCCC(=O)OC1CC(C)(C)NC(C)(C)C1 [TMPH, 2,2,6,6-tetramethylpiperidin-4-yl heptanoate] was tested, and the IC50 (Human α3β2α5; decrease in net charge, 1 μM ACh co-applied with TMPH, read-out: IC50 (area)) was 430 ± 180 nM, the IC50 (Human α3β2α5; decrease in peak current amplitude, 1 μM ACh co-applied with TMPH, read-out: IC50 (peak)) was 1100 nM and the IC50 (Human α3β2α5; inhibition still present after 5-minute wash, read-out: IC50 (recovery)) was 750 ± 200 nM. For the same molecule, the “IC50 recovery/IC50 net charge” value (Human α3β2α5; ratio) was 1.7, the IC50 (Rat α3β4β3; inhibition still present after 5-minute wash, read-out: IC50 (recovery), 2 site model, site with approximately 15% of the fit) was 1000 nM and the “IC50 recovery/IC50 net charge, 2-site model, first value” (Rat α3β4β3; ratio, recovery site of IC50 1.0 μM) was 0.7.
